Assay results: patent publication US11230555B2, “Bicyclic RORγ modulators” (Escalier Biosciences B.V., priority 2018, dated 2022)
pIC50: −log10 of the molar value.

Molecular target: T1, RORγt (Homo sapiens, UniProt P51449)
T1 construct: purchased reporter-cell kit
T1 sequence (P51449 269-508 limits assumed): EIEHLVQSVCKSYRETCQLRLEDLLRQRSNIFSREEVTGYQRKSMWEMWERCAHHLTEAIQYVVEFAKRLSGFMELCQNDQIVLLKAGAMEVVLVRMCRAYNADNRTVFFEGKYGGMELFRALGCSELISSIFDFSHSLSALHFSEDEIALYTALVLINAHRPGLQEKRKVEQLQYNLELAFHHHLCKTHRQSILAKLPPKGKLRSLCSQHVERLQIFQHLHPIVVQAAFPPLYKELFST
Experiment: Gal4 ligand binding assay (RORγt Gal fusion reporter assay)
Assay type: cell-based
Details: inverse agonists, luciferase reporter, 24h
Summary of the method: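 GAL4-DBD/RORγ(t) fusion stably expressed with a Gal4-UAS luciferase reporter in […] cells, which are constitutively active. Compounds were given as 2× media with 10 points from 60 μM to 3 nM (final DMSO 0.2%) for 24 h at 37° C, 5% CO2. Luminescence was normalized to DMSO control wells.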

`Cc1cc(CN2CC3CCC(C2)N3S(=O)(=O)Cc2ccccc2)ccc1-c1ccc(C(O)(C(F)(F)F)C(F)(F)F)cc1` [Example 65, 2-(4′-((8-(benzylsulfonyl)-3,8-diazabicyclo[3.2.1]octan-3-yl)methyl)-2′-methyl-[1,1′-biphenyl]-4-yl)-1,1,1,3,3,3-hexafluoropropan-2-ol] and `CCS(=O)(=O)N1C2CCC1CN(Cc1ccc(-c3ccc(C(O)(C(F)(F)F)C(F)(F)F)cc3)c(C)c1)C2` [Example 69, 2-(4′-((8-(ethylsulfonyl)-3,8-diazabicyclo[3.2.1]octan-3-yl)methyl)-2'-methyl-[1,1′-biphenyl]-4-yl)-1,1,1,3,3,3-hexafluoropropan-2-ol] cannot be ordered by pIC50: less than 6.60 for the first, less than 6.60 for the second.

`Cc1cc(CN2C3CCC2CN(Cc2ccc(-c4ccc(C(O)(C(F)(F)F)C(F)(F)F)cc4)c(C)c2)C3)ccn1` [Example 66, 1,1,1,3,3,3-hexafluoro-2-(2′-methyl-4′-((8-((2-methylpyridin-4-yl)methyl)-3,8-diazabicyclo[3.2.1]octan-3-yl)methyl)-[1,1′-biphenyl]-4-yl)propan-2-ol] and `Cc1cc(CN2CC3CCC(C2)N3Cc2ccnc(O)c2)ccc1-c1ccc(C(O)(C(F)(F)F)C(F)(F)F)cc1` [Example 70, 4-((3-((4′-(1,1,1,3,3,3-hexafluoro-2-hydroxypropan-2-yl)-2-methyl-[1,1′-biphenyl]-4-yl)methyl)-3,8-diazabicyclo[3.2.1]octan-8-yl)methyl)pyridin-2-ol] cannot be ordered by pIC50: less than 6.60 for the first, less than 6.60 for the second.

`Cc1cc(CN2CC3CCC(C2)N3S(=O)(=O)CC(F)(F)F)ccc1-c1ccc(C(O)(C(F)(F)F)C(F)(F)F)cc1` [Example 67, 1,1,1,3,3,3-hexafluoro-2-(2′-methyl-4′-((8-((2,2,2-trifluoroethyl)sulfonyl)-3,8-diazabicyclo[3.2.1]octan-3-yl)methyl)-[1,1′-biphenyl]-4-yl)propan-2-ol] and `CCCS(=O)(=O)N1C2CCC1CN(Cc1ccc(-c3ccc(C(O)(C(F)(F)F)C(F)(F)F)cc3)c(C)c1)C2` [Example 68, 1,1,1,3,3,3-hexafluoro-2-(2′-methyl-4′-((8-(propylsulfonyl)-3,8-diazabicyclo[3.2.1]octan-3-yl)methyl)-[1,1′-biphenyl]-4-yl)propan-2-ol] cannot be ordered by pIC50: less than 6.60 for the first, less than 6.60 for the second.

`CC(=O)N1C2CCC1CN(Cc1ccc(-c3ccc(C(O)(C(F)(F)F)C(F)(F)F)cc3)c(C)c1)C2` [Example 71, 1-(3-((4′-(1,1,1,3,3,3-hexafluoro-2-hydroxypropan-2-yl)-2-methyl-[1,1′-biphenyl]-4-yl)methyl)-3,8-diazabicyclo[3.2.1]octan-8-yl)ethan-1-one] and `Cc1cc(CN2CC3CCC(C2)N3S(C)(=O)=O)ccc1-c1ccc(C(O)(C(F)(F)F)C(F)(F)F)cc1` [Example 73, 1,1,1,3,3,3-hexafluoro-2-(2′-methyl-4′-((8-(methylsulfonyl)-3,8-diazabicyclo[3.2.1]octan-3-yl)methyl)-[1,1′-biphenyl]-4-yl)propan-2-ol] fall in the same range of pIC50: 6.60 to 7.30 for the first, 6.60 to 7.30 for the second.

First: Cc1cc(CN2CC3CC2CN3Cc2ccncc2)ccc1-c1ccc(C(O)(C(F)(F)F)C(F)(F)F)cc1 (centres unmarked) [Example 72, 1,1,1,3,3,3-hexafluoro-2-(2′-methyl-4′-((5-(pyridin-4-ylmethyl)-2,5-diazabicyclo[2.2.1]heptan-2-yl)methyl)-[1,1′-biphenyl]-4-yl)propan-2-ol]
Second: Cc1cc(CN2CC3CCC2CN3Cc2ccncc2)ccc1-c1ccc(C(O)(C(F)(F)F)C(F)(F)F)cc1 (centres unmarked) [Example 76, 1,1,1,3,3,3-hexafluoro-2-(2′-methyl-4′-((5-(pyridin-4-ylmethyl)-2,5-diazabicyclo[2.2.2]octan-2-yl)methyl)-[1,1′-biphenyl]-4-yl)propan-2-ol]
The pIC50 of the first is lower: less than 6.60 for the first, 6.60 to 7.30 for the second.

Compared with `Cc1cc(CN2CC3CCC(C2)N3C(=O)Cc2c(F)cccc2F)ccc1-c1ccc(C(O)(C(F)(F)F)C(F)(F)F)cc1` [Example 74, 2-(2,6-difluorophenyl)-1-(3-((4′-(1,1,1,3,3,3-hexafluoro-2-hydroxypropan-2-yl)-2-methyl-[1,1′-biphenyl]-4-yl)methyl)-3,8-diazabicyclo[3.2.1]octan-8-yl)ethan-1-one], `Cc1cc(CN2CC3CCC(C2)N3C(=O)c2ccncc2)ccc1-c1ccc(C(O)(C(F)(F)F)C(F)(F)F)cc1` [Example 75, (3-((4′-(1,1,1,3,3,3-hexafluoro-2-hydroxypropan-2-yl)-2-methyl-[1,1′-biphenyl]-4-yl)methyl)-3,8-diazabicyclo[3.2.1]octan-8-yl)(pyridin-4-yl)methanone] is higher in pIC50: less than 6.60 for the first, 6.60 to 7.30 for the second. The second is the more potent here.

Going from `Cc1cc(CN2CC3CCC(C2)N3Cc2ccc(F)cc2)ccc1-c1ccc(C(O)(C(F)(F)F)C(F)(F)F)cc1` [Example 77, 1,1,1,3,3,3-hexafluoro-2-(4′-((8-(4-fluorobenzyl)-3,8-diazabicyclo[3.2.1]octan-3-yl)methyl)-2′-methyl-[1,1'-biphenyl]-4-yl)propan-2-ol] to `Cc1cc(CN2CC3CCC(C2)N3Cc2ccncc2)ccc1-c1ccc(C(O)(C(F)(F)F)C(F)(F)F)cc1` [Example 78, 1,1,1,3,3,3-hexafluoro-2-(2′-methyl-4′-((8-(pyridin-4-ylmethyl)-3,8-diazabicyclo[3.2.1]octan-3-yl)methyl)-[1,1′-biphenyl]-4-yl)propan-2-ol], the pIC50 rises from less than 6.60 to greater than 7.30.
